Values of other authors in publication PMC10289903 (Investigational New Drugs, 2023).

Test system: platinum-resistant or platinum-refractory recurrent ovarian cancer
Conditions: placebo plus gemcitabine arm; 95% CI 1.8–3.8; cited from earlier work

SMILES: Nc1ccn([C@@H]2O[C@H](CO)[C@@H](O)C2(F)F)c(=O)n1 [gemcitabine, reference compound]
- PFS: 3.0 months
